Results on 4 molecules are retold here after ChEMBL document CHEMBL5120906, “Oxalierpenes A and B, Unusual Indole-Diterpenoid Derivatives with Antiviral Activity from a Marine-Derived Strain of the Fungus Penicillium oxalicum” (J Nat Prod, 2022).

For orientation: CC50 means the concentration that lowers cell viability or growth by half. Broadly, the IC50 is the midpoint of a concentration-inhibition curve.

A short description of data set [1]: Cytotoxicity against human HEp-2 cells assessed as reduction in cell viability. The data set is classed as toxicity, cell-based.
Data set [2] in a line: Therapeutic index, ratio of CC50 for Cytotoxicity against dog MDCK cells to IC50 for Antiviral activity against Influenza A virus A/WSN/33(H1N1) infected in dog MDCK cells. The format is toxicity, cell-based. As to conditions: read-out: Ratio CC50/IC50.
The nature of data set [3]: Cytotoxicity against dog MDCK cells assessed as reduction in cell viability. The data set is classed as toxicity, cell-based, Canis lupus familiaris.
For the next data set, the system named is Influenza A virus. The data set is described as follows: Antiviral activity against Influenza A virus A/WSN/33(H1N1) infected in dog MDCK cells assessed as inhibition of virus-induced cytopathic effect by CPE inhibition assay. The data set is classed as functional, organism-based. (In general: Cytopathic effects are the visible damage that an infection or toxin causes in cultured cells.)

Data set [4] in a line: Therapeutic index, ratio of CC50 for Cytotoxicity against human HEp-2 cells to IC50 for Antiviral activity against Respiratory syncytial virus infected in human HEp-2 cells. The data set is classed as toxicity, cell-based. The settings on record: read-out: Ratio CC50/IC50.
Data set [5] relates to Respiratory syncytial virus. Nature of the data set: Antiviral activity against Respiratory syncytial virus infected in human HEp-2 cells assessed as inhibition of virus-induced cytopathic effect by CPE inhibition assay. The data set is classed as functional, organism-based.

Take `CC1(C)C=C2C(=Cc3cc4c5c([nH]c4cc32)[C@@]2(C)[C@@H](CCC3=C([C@@H]4OC(C)(C)[C@@H](O)C4=O)C(=O)CC[C@@]32C)C5)C(C)(C)O1`: the CC50 in data set [1] was 31 µM; in data set [3] it was 27 µM. Further, the selectivity ratio in data set [2] was determined as 2.8; in data set [4] it was 4.6. In addition, the IC50 worked out at 9.4 µM with Influenza A virus and 6.7 µM in data set [5].
Regarding `CC1(C)C=C2C(=Cc3cc4c5c([nH]c4cc32)[C@@]2(C)[C@@H](CC[C@@]34O[C@@]6(O)[C@H](O)C(C)(C)O[C@H]6[C@@H]3C(=O)CC[C@]24C)C5)C(C)(C)O1`, the values for the CC50 in data set [1] and in data set [3] were 15 µM and 13 µM, respectively. Further, the selectivity ratio came to 3.5 in data set [2] and 5.5 in data set [4]. Besides, the IC50 amounted to 3.7 µM in the data set on Influenza A virus and 2.8 µM in data set [5].
For the molecule `NC(=O)c1nc(F)c[nH]c1=O` [FAVIPIRAVIR], the selectivity ratio in data set [2] was over 28. Besides, in data set [3], the CC50 is over 1000 µM.
Regarding `NC(=O)c1ncn([C@@H]2O[C@H](CO)[C@@H](O)[C@H]2O)n1` [RIBAVIRIN], in data set [1], the CC50 was over 1000 µM. Besides, in data set [4], the selectivity ratio is over 54. In addition, the IC50 in data set [5] was 19 µM.
